Source: US20200199523A1, “MEDIA FOR MICROORGANISM CULTURE AND RELATED COMPOSITIONS AND METHODS” (Massachusetts Institute of Technology, priority 2017, published 2020)

Assays:
[1] = test system: P. pastoris strains expressing hGH, G-CSF, IFN; assay: Amino acid supplementation of defined media: recombinant protein expression (GXII, SDS-PAGE, ELISA); format: cell-based; conditions: alone or with other amino acids, IFN (FIG. 10-13)
Method: Here, a study is presented of the impact of adding specific amino acids on recombinant protein titers. To uncover a general formulation, three P. pastoris strains were studied, each expressing a different heterologous protein.
Expression of three recombinant proteins, hGH, G-CSF, and IFN, by P. pastoris grown in media with different individual amino acids, 12.5 mM each. Protein concentrations measured by GXII, samples taken 24 hours after methanol induction (FIG. 10).
(FIG. 11). hGH expression by P. pastoris grown in media with different combinations of amino acids, each 12.5 mM total, based on initial individual amino acid screenings is shown. hGH concentrations were measured by GXII, samples taken 24 hours after methanol induction.
In FIG. 12, the effect of Asparagine, Glutamine, and Arginine on protein expression is examined. The starred media conditions are as follows; Glutamine, Arginine, Glutamine+Arginine (RDM), Asparagine, Glutamine+Asparagine, and all 20 amino acids. In all media conditions, total amino acid concentration is normalized to 25 mM.
hGH production was measured in media containing individual or combinations of amino acids. The total concentration in (mM) of amino acids was 12.5, 25, or 50 mM. The results were measured by ELISA, and each value is the average of three technical replicates.

wildtype Pichia pastoris = assay: Batch cultivation growth (optical density, growth rate) in microtiter plates and shake flasks; format: cell-based, Komagataella phaffii; conditions: for Effect of supplement on growth rate: nutrient screening in defined media; for Growth rate μ in supplemented defined media: nutrient screening, supplement added to defined media; for Effect on growth rate of reducing the element's concentration by 50%: basal salts medium (FIG. 2A)
Method: Batch cultivations were conducted at two scales: microtiter plates and shake flasks. Microtiter plates with 24 wells and pyramidal bottoms were purchased from Axygen. Each well had 10 mL total volume and cultivations used a 3 mL working volume. Plates were incubated in a Liconic LPX44 shaker at 600 rpm. Temperature was not controlled but remained at room temperature, between 21 and 24° C. […] The shake rate was set to 300 rpm and the temperature was controlled at 25° C. […]
All chemicals used in media formulations were purchased from Sigma. Complex media was purchased from Teknova. […] Glycerol was added at a starting concentration of 1% by volume. Media was autoclaved and filtered through a […] bottletop filter before use. PTM1 salts were added after filtration to avoid loss of trace elements through precipitation.
Biomass was measured by optical density. Shake flask samples were measured on a Genesys 10 Bio spectrophotometer. Microtiter plate samples were measured using a Tecan Infinite M200 Pro plate reader and converted to the same scale as the spectrophotometer samples using a calibration curve. Growth rates were calculated by linear regression between the natural logarithm of the optical density and the cultivation time in hours. The regression was run on time points during the exponential growth phase unless otherwise specified.

[2] = test system: P. pastoris gene expression; assay: RNA-Seq gene expression and ssGSEA at stages of perfusion cultivation; format: cell-based, K. phaffii
Method: To study gene expression under perfusion, seven cultivations were conducted (FIG. 14B). The production medium contained 1.5% v/v methanol. For four of the bioreactors (labeled 1, 3, 5A, 6A), the cultures were induced immediately after the DO spike. For the other three reactors (labeled 4, 5, 6), glycerol feed was maintained after the DO spike for 4 hours and then the cultures were induced with methanol. There were no significant differences between the biomass, hGH titers, or transcriptomic data between the two conditions (FIG. 15), so they were treated as biological replicates for RNA-Seq analysis.
RNA was isolated from samples taken at six time points during the cultivation (FIG. 14B). Samples were taken from all reactors after one day of exponential growth on glycerol (G1) and immediately after the DO spike (G2). […]
RNA was extracted using the Qiagen RNeasy kit (cat. no. 74104). […] All libraries were sequenced on the Illumina NextSeq platform to generate 75-nucleotide paired-end reads at a read depth of at least 3 million reads per sample. The reads were aligned to the previously reported genome sequence for this strain (Love et al., 2016) using RSEM version 1.2.15 with bowtie2 version 2.2.3. The reads were also aligned to the sequence for hGH using BWA (version 0.7.12). […]

[3] = test system: K. phaffii strain modified to express human growth hormone (hGH); assay: Perfusion cultivation: biomass (wet cell weight), hGH titer, productivity; format: cell-based
Method: Experiments were conducted using a K. phaffii strain modified to express human growth hormone (hGH) under the control of the AOX1 promoter. For biomass accumulation, cells were grown in medium containing per liter: 40 mL glycerol, 12 g KH2PO4, 4.7 g MgSO4.7H2O, 0.36 g CaCl2.2H2O, 4.96 g (NH4)2SO4, 1.46 g L-glutamine, 1.74 g L-arginine, 3.3 mL of vitamin solution, 10 mL of lipids solution, and 4.35 mL of PTM1 salts (Amresco J241). For protein production, cells were grown in medium containing per liter: 12 g KH2PO4, 4.7 g MgSO4.7H2O, 0.36 g CaCl2.2H2O, 13.21 g (NH4)2SO4, 2.92 g L-glutamine, 3.3 mL of vitamin solution, 10 mL of lipids solution, and 4.35 mL of PTM1 salts (Amresco J241). Both media were adjusted to pH 6.5 using 5M KOH. The vitamin solution consisted of per liter: 7.5 g myo-inositol, 0.3 g thiamine HCl, 0.3 g calcium pantothenate, 0.3 g nicotinic acid, 0.3 g pyroxidine HCl, 0.015 g biotin, and 0.06 g para-aminobenzoic acid. The lipids solution consisted of per liter: 2 mg arachidonic acid, 10 mg linoleic acid, 10 mg linolenic acid, 10 mg myristic acid, 10 mg oleic acid, 10 mg palmitic acid, 10 mg stearic acid, 2.2 g Tween-80, 70 mg tocopherol acetate, and 100 g of Pluronic F-68. All chemicals were purchased from Sigma. The medium was filtered before use.
Cultivations were conducted in 0.5 L Infors HT bioreactors adapted for operation in perfusion mode. Cultures were inoculated directly from a frozen cell stock into 0.44 L of medium. Cells were grown for approximately 32 hours in perfusion mode with medium containing glycerol fed at a rate of 0.5 mL/minute. […] The cultures were induced by switching the feed to production medium containing methanol, which was also fed at 0.5 mL/minute. Bioreactor temperature was automatically controlled at 25° C. The pH was controlled at 6.5 using 5M KOH.
For the studies of higher methanol feed rate, two cultivations were conducted. The production medium contained 15% v/v methanol. All other fermentation conditions were as described above.
Biomass was measured by wet cell weight. Five hundred microliters of sample were spun in a Costar Spin-X centrifuge filter tube for 10 minutes at 1500 g and the pellet was weighed. hGH concentrations in the supernatants were quantified by RPLC and by gel electrophoresis (Perkin Elmer GXII). Concentrations estimated by the two methods were highly consistent (slope=0.98, R^2=0.95).
Cell-specific productivity was calculated according to the following system of equations (Amos Lu, unpublished): […]
where qp is the cell-specific productivity, μ is the growth rate, F is the perfusion rate, X is the biomass concentration, and P is the protein titer.

[4] = perfusion, 15% v/v vs 1.5% v/v methanol

Compound: NC(=O)C[C@H](N)C(=O)O [asparagine]
- Effect on protein production [1]: increases protein production

Compound: NCCCC[C@H](N)C(=O)O [Lysine]
- Effect of supplement on growth rate (wildtype Pichia pastoris): did not
- Growth rate μ in supplemented defined media (wildtype Pichia pastoris): 0.196 h⁻¹

Compound: S1SSSSSSS1 [sulfur]
- Effect on growth rate of reducing the element's concentration by 50% (wildtype Pichia pastoris): no significant effect

Compound: N=C(N)NCCC[C@H](N)C(=O)O [Arginine]
- Effect of supplement on growth rate (wildtype Pichia pastoris): significant benefit
- Growth rate μ in supplemented defined media (wildtype Pichia pastoris): 0.202 h⁻¹
- Effect on protein production [1]: increases protein production

Compound: CO [methanol]
- Increase in expression of genes involved in methanol metabolism vs glycerol ([2]; first 4 hours after induction): 35 fold
- Increase in expression of genes involved in methanol metabolism vs glycerol ([2]; later in methanol feeding): 100 fold
- Cell-specific productivity relative to low-feed case ([3]; beginning of the cultivation (FIG. 23C)): double
- Biomass concentration ([3]; perfusion, 15% v/v methanol, day 6 of production): 530 g/L WCW
- hGH titer ([3]; perfusion, 15% v/v methanol, end of the cultivation): 2 g/L
- Cell density relative to low-methanol feeding experiments [3, 4]: over four times greater
- hGH titers relative to lower methanol feed rate [3, 4]: over six times higher
- Average growth rate ([3]; perfusion, methanol feed rate increased by a factor of ten (15% v/v)): 0.01 h⁻¹
- Volumetric productivity relative to lower methanol feed ([3]; perfusion, on average (FIG. 23D)): 3-4 times

Compound: phosphate
- Effect on growth rate of reducing the element's concentration by 50% (wildtype Pichia pastoris): no significant effect

Compound: NC(=O)CC[C@H](N)C(=O)O [Glutamine]
- Growth rate μ in supplemented defined media (wildtype Pichia pastoris): 0.217 h⁻¹
- Effect on protein production [1]: increases protein production

Compound: OC[C@H]1O[C@H](O[C@H]2O[C@H](CO)[C@@H](O)[C@H](O)[C@H]2O)[C@H](O)[C@@H](O)[C@@H]1O [Trehalose]
- Growth rate μ in supplemented defined media (wildtype Pichia pastoris): 0.193 h⁻¹

Compound: N [ammonium]
- Effect on growth rate of reducing the element's concentration by 50% (wildtype Pichia pastoris): significantly improved the growth rate
- Concentration at which it became limiting for growth (wildtype Pichia pastoris; basal salts medium (FIG. 2B)): 12.5 mM

Compound: C[C@H](N)C(=O)O [Alanine]
- Effect of supplement on growth rate (wildtype Pichia pastoris): did not
- Growth rate μ in supplemented defined media (wildtype Pichia pastoris): 0.195 h⁻¹

Compound: CC(O)C(=O)O (stereo not shown) [Lactate]
- Growth rate μ in supplemented defined media (wildtype Pichia pastoris): 0.186 h⁻¹
